Measurements reported in patent US20120093752A1, “Use of Monoamine Oxidase Inhibitors to Improve Epithelial Biology” (priority 2010, published 2012).
Entries after “also recorded” stand apart in the source; their conditions may differ. Structures can show the parent of a compound that is named as a salt.

Tests used:
MAOB = MAOB production in mice administered hair growth modulators; format: in vivo
follicles in telogen [1] = experiment: Hair growth induction (visual melanogenesis grades) in C3H mice; format: in vivo; details: topical, selegiline 1% or Triac 0.06%, 32 days
Description: Several MAO inhibitors were tested for the ability to improve hair growth using the Telogen Conversion Assay (TCA) described in, e.g., International Patent Publication No. 2000/73265. […] The skin color of mice subjected to treatment is graded visually on a scale from zero to four (0=white skin; 1=light gray skin; 2=blue/black spots; 3=large blue/black region; 4=mostly blue/black skin). As a subject transitions from telogen to anagen, the skin color becomes darker.
The potential of selegiline to induce hair growth in different mouse strains also was studied. Selegiline (1%) was topically administered to a C3H mice and C57BL/6 mice. Triac (0.06%) was used as a positive control. […] Both strains of mice also responded to the MAO inhibitor; however, the strains responded in a manner consistent with natural inter-strain differences in transitioning to anagen. The telogen phase in C3H mice is longer than telogen in C57BL/6 mice.

follicles in telogen [2] = experiment: Telogen Conversion Assay (TCA), visual melanogenesis grade as indicator of hair growth; format: in vivo, C57Bl/6 mice; details: topical; for timing of hair growth induction: C57BL/6 mice, selegiline 1% or Triac 0.06%, 32 days, FIG. 2; for hair growth induction in vivo (FIG. 1): compound alone; for hair growth induction in vivo (FIG. 1) / Activity (improved hair growth by inducing anagen): 19 days, C57Bl/6 mice
Description: The skin color of mice subjected to treatment is graded visually on a scale from zero to four (0=white skin; 1=light gray skin; 2=blue/black spots; 3=large blue/black region; 4=mostly blue/black skin). As a subject transitions from telogen to anagen, the skin color becomes darker.
Triac (0.06%) was administered as a positive control. Animals were scored for hair growth on the basis of melanogenesis during the treatment period.

Row | SMILES | hair growth induction in vivo (FIG. 1) (follicles in telogen [2]) | Activity (improved hair growth by inducing anagen) (follicles in telogen [2]; dose 1%) | also measured
1 | C[C@]12CCC(=O)C[C@@H]1CC[C@@H]1[C@@H]2CC[C@]2(C)[C@@H](O)CC[C@@H]12 [DHT, dihydrotestosterone] | – | – | MAOB levels (MAOB; C57Bl/6 mice, 12.5 mg/day subcutaneous continuous release pellet): increased greater than two fold
2 | O=C(O)Cc1cc(I)c(Oc2ccc(O)c(I)c2)c(I)c1 [Triac, Triiodothyroacetic Acid] | – | – | timing of hair growth induction (follicles in telogen [1]; FIG. 2): hair growth was induced at the same time for both mouse strains; also recorded: induced hair growth simultaneously; MAOB levels (MAOB; C3H mice, 0.06%): Reduced MAOB levels; timing of hair growth induction (follicles in telogen [2]): hair growth was induced at the same time for both mouse strains; also recorded: induced hair growth simultaneously
3 | NCCNC(=O)c1ccc(Cl)cn1 [Lazabemide] | not shown to induce hair growth alone | – | –
4 | C#CCN(C)Cc1ccccc1 [Pargyline HCL] | induced significant hair growth | YES | –
5 | NNCCc1ccccc1 [Phenelzine] | induced significant hair growth | – | Activity (improved hair growth by inducing anagen) (follicles in telogen [2]; dose 0.5%): YES
6 | C#CCN(C)CCCOc1ccc(Cl)cc1Cl [Clorgiline] | induced significant hair growth | YES | –
7 | C#CCN(C)[C@H](C)Cc1ccccc1 [Selegiline Hydrochloride] | Robust hair growth induction | YES | timing of hair growth induction (follicles in telogen [1]; FIG. 2, Hydrochloride): induced hair regrowth significantly earlier; also recorded: initiated hair growth significantly sooner than treatment with vehicle; timing of hair growth induction (follicles in telogen [2]; Hydrochloride): induced hair regrowth significantly earlier; also recorded: initiated hair growth significantly sooner than treatment with vehicle
8 | C#CCN[C@@H]1CCc2ccccc21 [Rasagiline mesylate] | Robust hair growth induction | YES | –
